This note sets out measurements from US20050282818A1, “Ubiquitin ligase inhibitors” (Rigel Pharmaceuticals, Inc., priority 2004, published 2005).

Structures are written as SMILES. pIC50: −log10 of the molar value. A value given as a limit tells only on which side of the number the result lay.

Assay [1] concerns ICAM-1 expression in A549 cells. Nature of the assay: ICAM assay (IL-1 induced ICAM-1/CD54 expression in A549 cells). It is filed as cell-based, human. In short, it runs like this:
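A549 cells, 10,000/well, preincubated with compound 1 h at 37° C, then stimulated with IL-1 (4 μl of 25 ng/ml added) for 4 h. Surface ICAM-1 detected by anti-CD54 plus anti-mouse IgG staining for 1 h, luminescent read-out after PBS washes.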

In the next assay the target is APC11/APC2 (Homo sapiens, UniProt Q9NYG5+Q9UJX6). Nature of the assay: APC-11/APC-2 ligase assay (APC auto ubiquitination). It is filed as biochemical. Particulars: APC assay. Summed up: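 His-tagged APC was captured on nickel plates with human E1 (5 ng/well), UbcH5c (20 ng/well), APC (100 ng/well) and Flag-ubiquitin (100 ng/well) in a Tris pH 7.6 reaction buffer containing 2.5 mM ATP, for 1 hour at room temperature. Read-out was anti-Flag/HRP chemiluminescence. IC50 was set against a DMSO control, typically from 6 or 8 concentrations.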
Sequence of APC11/APC2 (Q9NYG5 whole entry): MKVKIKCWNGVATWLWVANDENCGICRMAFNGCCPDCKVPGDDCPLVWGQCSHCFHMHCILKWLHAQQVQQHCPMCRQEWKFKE
Sequence of APC11/APC2 (Q9UJX6 whole entry): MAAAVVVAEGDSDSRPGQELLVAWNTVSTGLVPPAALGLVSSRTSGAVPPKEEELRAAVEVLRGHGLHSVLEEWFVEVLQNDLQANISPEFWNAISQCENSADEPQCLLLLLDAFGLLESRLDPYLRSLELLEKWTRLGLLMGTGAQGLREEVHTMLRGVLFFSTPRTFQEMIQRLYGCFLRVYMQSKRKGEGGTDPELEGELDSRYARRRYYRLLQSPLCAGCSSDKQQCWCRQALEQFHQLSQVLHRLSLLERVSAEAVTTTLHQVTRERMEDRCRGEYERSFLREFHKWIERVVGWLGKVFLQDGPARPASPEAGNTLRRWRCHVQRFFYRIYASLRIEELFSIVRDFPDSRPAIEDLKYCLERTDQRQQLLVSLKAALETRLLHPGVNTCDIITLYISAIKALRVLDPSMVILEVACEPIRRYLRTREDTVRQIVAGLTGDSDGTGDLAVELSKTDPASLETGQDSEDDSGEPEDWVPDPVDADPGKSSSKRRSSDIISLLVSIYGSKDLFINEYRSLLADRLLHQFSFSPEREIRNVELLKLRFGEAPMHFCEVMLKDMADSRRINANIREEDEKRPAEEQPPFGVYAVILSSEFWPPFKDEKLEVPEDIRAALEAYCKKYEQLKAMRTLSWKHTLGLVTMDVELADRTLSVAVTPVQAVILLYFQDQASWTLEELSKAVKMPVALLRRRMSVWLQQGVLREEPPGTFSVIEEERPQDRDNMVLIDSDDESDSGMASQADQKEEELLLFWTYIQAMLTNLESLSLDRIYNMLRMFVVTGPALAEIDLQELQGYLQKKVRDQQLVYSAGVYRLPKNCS

As to `O=[N+]([O-])c1ccc(-c2cccc(C(F)(F)F)c2)c2nonc12` [compound 309, 4-Nitro-7-[3-(trifluoromethyl)phenyl]-2,1,3-benzoxadiazole], the pIC50 in assay [1] (Homo sapiens, A549, ICAM assay) is 4.70 to 6.00; on APC11/APC2 it was 4.70 to 6.00.

With `COc1cc(Nc2ccc3nonc3c2S(=O)(=O)Nc2cc(OC)c(Cl)cc2OC)c(OC)cc1Cl` [compound 344, N-(4-chloro-2,5-dimethoxyphenyl)-5-([4-chloro-2,5-dimethoxyphenyl]amino)-2,1,3-benzoxadiazole-4-sulfonamide], the pIC50 in assay [1] (Homo sapiens, A549, ICAM assay) was not above 4.70; against APC11/APC2, not above 4.70.

For the compound `O=[N+]([O-])c1ccc(Sc2nc3ccccc3s2)c2nonc12` [compound 158, 4-(1,3-benzothiazol-2-ylthio)-7-nitro-2,1,3-benzoxadiazole], the pIC50 in assay [1] (Homo sapiens, A549, ICAM assay) was not above 4.70; on APC11/APC2 it was 4.70 to 6.00.

Take `O=S(=O)(Nc1ccc2cn[nH]c2c1)c1c(O)ccc2nonc12` [compound 339, 5-hydroxy-N-(1H-indazol-6-yl)2,1,3-benzoxadiazole-4-sulfonamide]: the pIC50 is not above 4.70 in assay [1] (Homo sapiens, A549, ICAM assay) and not above 4.70 against APC11/APC2.

`COc1cc(NS(=O)(=O)c2c(Cl)ccc3nonc23)c(OC)cc1Cl` [compound 343, 5-chloro-N-(4-chloro-2,5-dimethoxyphenyl)-2,1,3-benzoxadiazole-4-sulfonamide]: the pIC50 in assay [1] (Homo sapiens, A549, ICAM assay) is 4.70 to 6.00; against APC11/APC2, not above 4.70.

Regarding `CC(C)(C)c1ccc(-c2ccc([N+](=O)[O-])c3nonc23)cc1` [compound 313, 4-(4-Tert-butylphenyl)-7-nitro-2,1,3-benzoxadiazole], the pIC50 in assay [1] (Homo sapiens, A549, ICAM assay) was 4.70 to 6.00; at APC11/APC2 it was 4.70 to 6.00.

On to `COc1cc(NS(=O)(=O)c2ccc(Cl)c3nonc23)c(OC)cc1Cl` [compound 341, 7-chloro-N-(4-chloro-2,5-dimethoxyphenyl)-2,1,3-benzoxadiazole-4-sulfonamide], for which the negative-log IC50 (pIC50) in assay [1] (Homo sapiens, A549, ICAM assay) is 4.70 to 6.00; at APC11/APC2 it was not above 4.70.

Regarding `O=S(=O)(c1c(N2CCC(Oc3ccccc3C(F)(F)F)CC2)ccc2nonc12)N1CCC(Oc2ccccc2C(F)(F)F)CC1` [compound 340, 5-[4-(2-{trifluoromethyl}phenoxy)piperidin-1-yl]-4-{[4-(2-{trifluoromethyl}phenoxy)piperidin-1-yl]sulfonyl}-2,1,3-benzoxadiazole], the pIC50 in assay [1] (Homo sapiens, A549, ICAM assay) is not above 4.70; at APC11/APC2, not above 4.70.

For `COc1cc(Nc2ccc(S(=O)(=O)Nc3cc(OC)c(Cl)cc3OC)c3nonc23)c(OC)cc1Cl` [compound 342, N-(4-chloro-2,5-dimethoxyphenyl)-7-([4-chloro-2,5-dimethoxyphenyl]amino)-2,1,3-benzoxadiazole-4-sulfonamide], the pIC50 (in assay [1] (ICAM assay); at APC11/APC2) was 4.70 to 6.00 throughout.

As to `O=S(=O)(c1c(Cl)ccc2nonc12)N1CCN(c2ncc(C(F)(F)F)cc2Cl)CC1` [compound 179, 5-chloro-4-({4-[3-chloro-5-(trifluoromethyl)pyridin-2-yl]piperazin-1-yl}sulfonyl)-2,1,3-benzoxadiazole], the pIC50 in assay [1] (Homo sapiens, A549, ICAM assay) was not above 4.70; at APC11/APC2, 4.70 to 6.00.

With `O=[N+]([O-])c1ccc(Oc2ccc(S(=O)(=O)Nc3cccc4nonc34)cc2Cl)c(C(F)(F)F)c1` [compound 114, N-2,1,3-benzoxadiazol-4-yl-3-chloro-4-[4-nitro-2-(trifluoromethyl)phenoxy]benzenesulfonamide], the pIC50 against APC11/APC2 is 4.70 to 6.00.

In turn, `O=S(=O)(Nc1cccc2nsnc12)c1ccc(Oc2ccccc2)cc1` [compound 94, N-2,1,3-benzothiadiazol-4-yl-4-phenoxybenzenesulfonamide] gave a negative logarithm of the IC50 (pIC50) on APC11/APC2 of 4.70 to 6.00.

Take `Cc1cccc(-c2ccc([N+](=O)[O-])c3nonc23)c1` [compound 310, 4-(3-Methylphenyl)-7-nitro-2,1,3-benzoxadiazole]: the pIC50 in assay [1] (Homo sapiens, A549, ICAM assay) was 4.70 to 6.00; at APC11/APC2 it was 4.70 to 6.00.

In turn, `O=S(=O)(c1ccc(Sc2cccc3cccnc23)c2nonc12)N1CCN(c2ncc(C(F)(F)F)cc2Cl)CC1` [compound 177, 8-{[7-({4-[3-chloro-5-(trifluoromethyl)pyridin-2-yl]piperazin-1-yl}sulfonyl)-2,1,3-benzoxadiazol-4-yl]thio}quinoline] had a pIC50 against APC11/APC2 of 4.70 to 6.00.

For orientation: pIC50 means the negative decadic logarithm of the IC50, by convention in mol/L. High values mean a low IC50, low ones a high IC50.
